The text below walks through data of publication PMC11203657, “Glyphosate-Induced Phosphonatase Operons in Soil Bacteria of the Genus Achromobacter” (International Journal of Molecular Sciences, 2024).

As usually defined, the Km is the concentration of substrate that gives half-maximal velocity. Broadly, the Vmax is the rate approached at saturating substrate. The term kcat denotes the number of substrate molecules converted per active site and unit of time at saturation. In general, kcat/Km refers to the second-order rate constant that governs catalysis at low substrate concentration.

The target in one data set is T1, PhnX19-I (Achromobacter insolitus, UniProt Z9I4E4M620).
T1 construct: native, purified from wild-type strain, untagged; homodimer; MALDI match to OAD13647.1
T1 sequence (Z9I4E4M620 1-273): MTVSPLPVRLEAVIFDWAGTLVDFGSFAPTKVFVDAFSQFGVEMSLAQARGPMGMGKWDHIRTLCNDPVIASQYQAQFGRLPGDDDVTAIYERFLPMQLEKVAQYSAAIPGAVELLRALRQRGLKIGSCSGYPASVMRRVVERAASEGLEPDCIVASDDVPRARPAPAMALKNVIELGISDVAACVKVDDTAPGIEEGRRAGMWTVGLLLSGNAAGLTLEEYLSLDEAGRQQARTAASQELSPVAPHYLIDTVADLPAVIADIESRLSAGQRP
Description: inhibition kinetics, ADH/NADH-coupled PAA hydrolysis, vector method. In kind it is biochemical. Conditions: substrate PAA 0.1-5 mM, pH 7.5, 10 mM MgCl2, 25 °C. From the text:
inhibition kinetics, ADH/NADH-coupled PAA hydrolysis, vector method on PhnX19-I

The target of another data set is T2, PhnX19-II (Achromobacter insolitus, UniProt Z9I4E4M620).
T2 construct: native, purified from wild-type strain, untagged; homodimer; MALDI match to OAD13647.1
T2 sequence (Z9I4E4M620 1-273): T1 sequence (Z9I4E4M620 1-273)
Described as above. It counts as biochemical. To be noted: substrate PAA 0.1-5 mM, pH 7.5, 10 mM MgCl2, 25 °C. From the text: inhibition kinetics, ADH/NADH-coupled PAA hydrolysis, vector method on PhnX19-II

Data set [1] deals with T3, PhnX16 (Achromobacter aegrifaciens, UniProt A0ABU2D8D6).
T3 construct: gene phnX; native, purified from wild-type strain, untagged; subunit ~31 kDa, homodimer ~60-65 kDa
T3 sequence (A0ABU2D8D6 4-276): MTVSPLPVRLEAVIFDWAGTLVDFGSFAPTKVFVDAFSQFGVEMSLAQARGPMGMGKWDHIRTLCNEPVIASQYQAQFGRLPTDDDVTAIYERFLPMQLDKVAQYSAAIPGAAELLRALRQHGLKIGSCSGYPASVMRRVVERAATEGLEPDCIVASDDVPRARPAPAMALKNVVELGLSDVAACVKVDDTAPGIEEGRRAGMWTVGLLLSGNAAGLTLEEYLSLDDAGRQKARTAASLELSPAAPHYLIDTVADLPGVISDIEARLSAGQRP
Description: activation kinetics, ADH/NADH-coupled PAA hydrolysis, vector method. In kind it is biochemical. Conditions: substrate PAA 0.1-5 mM, pH 7.5, 10 mM MgCl2, 25 °C; Ka is an activation constant; competitive-type activator. From the text:
activation kinetics, ADH/NADH-coupled PAA hydrolysis, vector method on PhnX16

Data set [2] concerns the target T3, PhnX16. In words: inhibition kinetics, ADH/NADH-coupled PAA hydrolysis, vector method. It counts as biochemical. An excerpt: inhibition kinetics, ADH/NADH-coupled PAA hydrolysis, vector method on PhnX16
Substrate in the data set “purified protein”: O=CCP(=O)(O)O
Description: purified protein. In kind it is biochemical, Achromobacter aegrifaciens. Conditions: pH 7.5, 50 mM Tris-HCl, 10 mM MgCl2, 0.1 mM DTT, 25 °C.

The mark [3] stands for this setting: noncompetitive in table, uncompetitive in text, read-out: Effectors / 2,4-DNPA.
[4] abbreviates: noncompetitive inhibitor, read-out: Effectors / BPA.
[5] abbreviates: uncompetitive inhibitor, read-out: Effectors / GP.
Where [6] appears, read: competitive inhibitor, read-out: Effectors / 2-AEP.

Read-outs that look alike come from different tables or passages of the source.

With `CC(=O)Oc1ccc([N+](=O)[O-])cc1[N+](=O)[O-]` [2,4-DNPA, 2,4-dinitrophenyl acetate], the Ki on PhnX19-I (setting [3]) was found to be 730 µM; on PhnX19-II (setting [3]), 760 µM.
On to `NCP(=O)(O)O` [AMPA, aminomethylphosphonic acid], for which, on PhnX16 [1], the “Ka (activation constant)” value is on record as 43.5 mM.
For the molecule `CCCCP(=O)(O)O` [BPA, butylphosphonic acid], the Ki came out at 390 µM on PhnX19-I (setting [4]), 300 µM on PhnX19-II (setting [4]) and 750 µM at PhnX16 [2].
`O=C(O)CNCP(=O)(O)O` [GP, N-phosphonomethylglycine]: the results for the Ki on PhnX19-I (setting [5]), at PhnX19-II (setting [5]) and on PhnX16 [2] (read-out: Effectors / GP) were 4000 µM, 5400 µM and 11600 µM, respectively.
As to `NCCP(=O)(O)O` [compound 1, 2-aminoethylphosphonic acid], the Ki on PhnX19-I (setting [6]) is 2200 µM; on PhnX19-II (setting [6]) it was 2480 µM. Besides, at PhnX16 [1], the “Effectors / 2-AEP” value is reported as 21 mM.

B1: PhnX16 (Achromobacter aegrifaciens) (protein)
chain: T3 sequence (A0ABU2D8D6 4-276)
notes: native, purified from wild-type strain, untagged; subunit ~31 kDa, homodimer ~60-65 kDa
As to B1, in the data set “purified protein”, the Km worked out at 889 ± 138 µM, the Vmax came out at 1.2 µmol/min/mg, the kcat was determined as 0.6 ± 0.1 s⁻¹ and the kcat/Km worked out at 670 M⁻¹ s⁻¹.

B2: PhnX16R (Achromobacter aegrifaciens) (protein)
chain: T3 sequence (A0ABU2D8D6 4-276)
notes: recombinant full length, C-terminal His6 tag kept, pET-22b without pelB, E. coli BL21(DE3); homodimer
As for B2, in the data set “purified protein”, the Michaelis-Menten constant (Km) worked out at 641 ± 23 µM, the maximum rate (Vmax) turned out to be 1.12 µmol/min/mg, the kcat stood at 0.56 ± 0.05 s⁻¹ and the kcat/Km came out at 875 M⁻¹ s⁻¹.
